Laboratory results reported in US9801855B2, “Nanocrystalline solid dispersion compositions and process of preparation thereof” (NATIONAL INSTITUTE OF PHARMACEUTICAL EDUCATION AND RESEARCH …, priority 2012, dated 2017).

Assays:
in vivo = conditions: female, SD, rat, po, 250 mg/kg
[1] = Dissolution of curcumin powder and dispersion in fasted state simulated gastric fluid; type: physicochemical; conditions: fasted state simulated gastric fluid pH 1.6, 37° C., 100 rpm, 25 mg equivalent
Method: • i. 2 gm of curcumin and 2 gm of stearic acid were dissolved in 200 ml of acetone. • ii. The solution was spray dried using following parameters (Table 1). • iii. DSC and MDSC indicated the crystalline nature of curcumin in the dispersion. The crystallite size measured from powder X-ray diffraction peak broadening by Scherrer equation was 398.6 nm. • iv. Fasted state simulated gastric fluid contained sodium taurocholate (80 μM), lecithin (20 μM), pepsin (0.1 mg/ml), sodium chloride (34.2 mM), sodium lauryl sulphate (0.05% w/v) and hydrochloric acid (q.s. pH 1.6). Samples equivalent to 25 mg of CRM were added into 900 ml dissolution medium and incubated at 37±0.5° C. at 100 rpm.

[2] = Dissolution of powder and dispersion in 900 ml of 100 mM pH 6.8 phosphate buffer at 100 rpm; type: physicochemical; conditions: 60 mg equivalent
Method: • i. 2 gm of hesperetin was dissolved in 150 ml of methanol • ii. 2 gm of mannitol was dissolved in 50 ml of distilled water. • iii. Aqueous mannitol solution was added to methanolic solution of hesperetin. The solution was spray dried using following parameters (Table 10). • iv. DSC and MDSC indicated the crystalline nature of hesperetin in the dispersion. The crystallite size measured from powder X-ray diffraction peak broadening (FIG. 14) by Scherrer equation was 141.06 nm. • v. The dissolution profiles of hesperetin powder and dispersion in 900 ml of 100 mM pH 6.8 phosphate buffer at 100 rpm are presented in Table 11. 60 mg equivalent of hesperetin as powder and dispersion were taken for dissolution studies. • i. 2 gm of Naringenin was dissolved in 150 ml of methanol • ii. 2 gm of mannitol was dissolved in 50 ml of distilled water. • iii. Aqueous mannitol solution was added to methanolic solution of naringenin. The solution was spray dried using following parameters (Table 12). • iv. DSC and MDSC indicated the crystalline nature of naringenin in the dispersion. The crystallite size measured from powder X-ray diffraction peak broadening (FIG. 15) by Scherrer equation was 210.63 nm. • v. The dissolution profiles of naringenin powder and dispersion in 900 ml of 100 mM pH 6.8 phosphate buffer at 100 rpm are presented in Table 13. 60 mg equivalent of naringenin as powder and dispersion were taken for dissolution studies.

Row | % Release ([2]; 0 min) | % Release ([2]; 3 min) | % Release ([2]; 5 min) | % Release ([2]; 10 min) | % Release ([2]; 15 min) | % Release ([2]; 30 min) | % Release ([2]; 60 min) | % Release ([2]; 120 min) | also measured | SMILES
1 |  |  |  |  |  |  |  |  | AUC(0-inf) (in vivo): 76.2 ng·h/mL; Cmax (in vivo): 58.1 ng/mL; Tmax (in vivo): 0.6 ± 0.1 h; half-life (in vivo): 1.4 ± 0.3 h | COc1cc(/C=C/C(=O)CC(=O)/C=C/c2ccc(O)c(OC)c2)ccc1O [Control, curcumin]
2 |  |  |  |  |  |  |  |  | % Release ([1]; 5 min): 10.8%; % Release ([1]; 10 min): 15.0%; % Release ([1]; 15 min): 15.4%; % Release ([1]; 20 min): 15.1%; % Release ([1]; 30 min): 15.1%; % Release ([1]; 40 min): 15.2%; % Release ([1]; 60 min): 15.0%; % Release ([1]; 80 min): 15.2%; % Release ([1]; 100 min): 15.6%; % Release ([1]; 120 min): 15.3% | COc1cc(/C=C/C(=O)CC(=O)/C=C/c2ccc(O)c(OC)c2)ccc1O [Curcumin powder, curcumin]
3 | 0.00% | 1.25% | 3.06% | 2.15% | 1.06% | 1.48% | 3.74% | 7.47% |  | COc1ccc([C@@H]2CC(=O)c3c(O)cc(O)cc3O2)cc1O [Hesperetin powder, hesperetin]
4 | 1.60% | 5.84% | 9.54% | 11.52% | 17.32% | 23.34% | 26.25% | 25.14% |  | O=C1C[C@@H](c2ccc(O)cc2)Oc2cc(O)cc(O)c21 [Naringenin powder, naringenin]
